Entries after “also recorded” stand apart in the source; their conditions may differ.
Legend:
[1] = test system: ProMMP-2; experiment: Substrate gel zymography of treated proMMP-2; assay type: biochemical, human; settings: 50 ng proMMP-2, 2-h incubation at room temperature
Description: Samples containing MMP-2 were diluted with zymogram sample buffer (Bio-Rad, Munich, Germany) and separated on homogeneous 10% SDS-PAGE gels containing 1 mg/ml (wt/vol) gelatine (Bio-Rad), washed with excess MMP activity buffer containing 2.5% (vol/vol) Triton X-100 to remove SDS, and incubated with MMP activity buffer for 24 h. Gels were stained with Coomassie Blue R-250. Gels showing proteolytic bands corresponding to proMMP-2 (72 kDa) or actMMP-2 (62 kDa) were scanned (Plustek, Norderstedt, Germany) and analyzed from inverted grayscale images.

[2] = test system: MMP-13; experiment: Effect of P33-42 on MMP-13; assay type: biochemical; settings: MMP without CBD; data not shown
Description: (§1) Enzymatic activities of MMPs were studied spectrofluorimetrically by cleavage of fluorogenic substrates in MMP activity buffer within 2 to 5 h. For gelatinases 800 nM MCA-Pro-Leu-Gly-Leu-Dnp-Dap-Ala-Arg-NH2 (λex/em 328/393 nm; Bachem, Bubendorf, Switzerland) or 10 μg/ml DQ-gelatine were used, according to the method described by Knight et al. for collagenases 800 nM MCA-Pro-Cha-Gly-Nva-His-Ala-Dpa-NH2 (λex/em 280/360 nm; Anaspec, San José, CA, USA). In some experiments, proMMP-2 was fully activated in the presence of 1 mM APMA prior to the kinetic measurements. A quantity of 50 ng pro- or actMMP-2 alone or mixed with 10- to 150-fold molar excesses of (GPO)10, GAP, P33-42 or mixtures of (GPO)10 and P33-42, were added to CI-coated, BSA-coated (1 μg/well both) or uncoated wells containing 150 μl of the respective substrate solution. The peptide P33-42 was purchased from the Institute of Biochemistry (Humboldt-University, Berlin, Germany). The influence of CI on MMP-2 enzymatic activity against the quenched fluorescent substrate could be excluded. Background subtraction (measurement without MMPs) was applied to all curves. All experiments were performed with a fluorescence microplate reader (Molecular Devices, Sunnyvale, CA, USA) and black 96-well microtiter plates with a clear bottom (Greiner bio-one, Frickenhausen, Germany).

[3] = target: T1, proMMP-2 / CI (Homo sapiens, UniProt P08253); experiment: SPR, competition of proMMP-2 binding to CI, MMP activity buffer with Ro 28-2653
T1 construct: prodomain-containing proMMP-2 or proMMP-9; purchased Invitek
T1 sequence (P08253 30-660 limits assumed): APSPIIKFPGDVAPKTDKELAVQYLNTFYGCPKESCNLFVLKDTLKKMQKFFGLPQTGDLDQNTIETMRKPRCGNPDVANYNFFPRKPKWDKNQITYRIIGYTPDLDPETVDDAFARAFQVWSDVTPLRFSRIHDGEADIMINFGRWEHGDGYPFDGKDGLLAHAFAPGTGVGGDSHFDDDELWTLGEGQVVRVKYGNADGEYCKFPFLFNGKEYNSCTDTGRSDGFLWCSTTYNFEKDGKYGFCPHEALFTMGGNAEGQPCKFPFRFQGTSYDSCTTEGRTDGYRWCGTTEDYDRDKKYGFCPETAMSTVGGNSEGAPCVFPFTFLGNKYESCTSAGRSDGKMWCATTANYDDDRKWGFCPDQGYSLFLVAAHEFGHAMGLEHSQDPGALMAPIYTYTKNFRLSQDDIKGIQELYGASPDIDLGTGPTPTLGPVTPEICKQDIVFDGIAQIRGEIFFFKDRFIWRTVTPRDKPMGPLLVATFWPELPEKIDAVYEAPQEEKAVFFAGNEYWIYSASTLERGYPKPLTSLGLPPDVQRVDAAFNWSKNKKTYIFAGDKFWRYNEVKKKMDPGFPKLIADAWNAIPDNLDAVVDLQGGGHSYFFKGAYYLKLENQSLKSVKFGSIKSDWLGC
Description: (§2) Sensor chip preparations and SPR measurements were performed using a BiacoreX device and the Bia-evaluation software (version 3.2; Biacore, Uppsala, Sweden). The pepsin-resistant triple-helical part of human fibrillar CI (100 μg/ml) in 10 mM acetate coupling buffer, pH 4.8, was immobilized to a dextran matrix-sensor chip at a flow rate of 5 μl/min, resulting in 5,500 resonance units from CI covalently linked via its primary amino groups. The control flow cell was prepared using the coupling buffer without CI. Surfaces were activated and blocked as described previously. Immediately after thawing, pro- and actMMP-2 and pro- and actMMP-9 were diluted to 100 to 250 nM in MMP activity buffer or in PBS and 0.05% (vol/vol) Tween 20. For SPR measurements, flow rates were 10 μl/min at 25°C, and equilibrium was typically reached after 30 to 60 s. The effects of (GPO)10, GAP, (POG)5, (GPP)10 and P33-42 on MMP-2 and MMP-9 binding to CI and their enzymatic activity were determined by adding the binding competitors to the (pro- and act)MMP-2 and MMP-9 solution in 10- to 150-fold molar excesses. Effects independent of MMP-2 and MMP-9 activity were monitored in the presence of Ro 28-2653 (1 μM) during SPR analysis. The gelatinase inhibitor Ro 28-2653 was a generous gift from H.-W. Krell (Roche, Grenzach-Wyhlen, Germany). Sensor surfaces were regenerated with 10 mM glycine, pH 2.3, for 1 min between runs, and sensor chips were used up to 25 times. Kinetic parameters were analyzed using the 1:1 binding model with drifting baseline and subtraction of the control flow cell binding from sensorgrams obtained with immobilized CI. Binding constants (Kd) were calculated from the association (ka) and dissociation rates (kd) obtained from individual binding curves at different concentrations. Individual drifts of the resonance signal were fitted locally, and χ^2 values of 0.2% to 1.0% of the maximum resonance value were considered good fits.

[4] = target: Col-3 module of the CBD of MMP-2; settings: ref [7]; cited from earlier work
From the text: Finally, we asked how (GPO)10 competes CBD-mediated binding of proMMP-2 to fibrillar collagen and thereby modulates binding as well as enzymatic activity and activation. We made use of the P33-42 peptide derived from the prodomain of MMP-2. […] Even at high molar ...

[5] = test system: MMP-9; experiment: Effect of P33-42 on MMP-9; assay type: biochemical; settings: MMP devoid of prodomain-CBD interaction; data not shown
Description: as §1

[6] = test system: ProMMP-2; experiment: DQ-gelatine degradation assay with MMP-2; assay type: biochemical, human; settings: for DQ-gelatine cleavage by proMMP-2: 5 h at 25°C
Description: as §1

[7] = In situ binding of MMPs to fibrotic liver sections; set-up: species or system human; settings: immunohistochemistry; 25 ng MMP, 30 min
Description: Human cirrhotic liver cryostat sections (5 μm) were air-dried and fixed in ice-cold acetone for 10 min. Tissue sections were rehydrated with PBS and incubated with 25 ng/50 μl of the respective proMMP and actMMP for 30 min or were left untreated. After thorough washing with PBS, antibodies specific for human MMP-9 (clone MAB911; R&D Systems, Minneapolis, MN, USA) and human MMP-2 (clone 75-7F7; Oncogene, Cambridge, MA, USA) were applied, and primary antibody binding was detected using the alkaline phosphatase-antialkaline phosphatase detection system (Dako, Hamburg, Germany). An irrelevant primary mouse antibody served as control. Nuclei were counterstained with Hemalaun, and slides were examined by standard light microscopy.

[8] = test system: collagen type I (CI); experiment: SPR binding of MMPs to immobilized CI, nonactivating buffer; set-up: species or system human
Description: as §2

With “P33-42: MMP-2 prodomain-derived CBD-binding peptide (PIIKFPGDVA)” the “substrate zymography, prodomain-free actMMP-2 band” value [1] was “did not occur”, the “effect on MMP” value [2] was “no effects” and the “competition with proMMP-2 binding to CI” value ([3]; SPR, MMP activity buffer with Ro 28-2653) was “competed with proMMP-2 binding to CI; also recorded: only slightly inhibited proMMP-2 binding to CI”. The “increase of Kd of proMMP-2 binding to CI” value ([3]; high (up to 100-fold) molar excesses, 100-250 nM proMMP-2, 1 μM Ro 28-2653) was “up to 50%”, the Kd [4] was 1600 µM and the “effect on MMP” value [5] was “no effects”. The “DQ-gelatine cleavage by proMMP-2” value ([6]; 50- to 100-fold molar excesses) was “no activating effect but a slight inhibitory effect”, the “DQ-gelatine cleavage by proMMP-2” value ([6]; 150-fold molar excess) was “more enhanced inhibitory effect” and the proMMP-2 activation ([6]; P33-42 alone, even at high molar excesses) was “did not activate proMMP-2; also recorded: did not affect proMMP-2 activation”. For the same substance, the “effect on inhibitory effect of (GPO)10 on MMP-2 activity” value ([6]; equimolar mixture of (GPO)10 and P33-42, 150-fold molar excess) was “the inhibitory effect of (GPO)10 on MMP-2 activity was diminished” and the “effect on (GPO)10-mediated activation of proMMP-2” value ([6]; equimolar mixtures of (GPO)10 and P33-42, 50- to 100-fold molar excesses) was “prevented (GPO)10-mediated proMMP-2 activation; also recorded: drastically diminished the activating effect of (GPO)10 on proMMP-2; also recorded: blocked (GPO)10-mediated proMMP-2 activation”.
In the case of “ActMMP-9: 86-kDa activated form of MMP-9”, the “binding to liver sections” value [7] is reported as “No significant binding”, the “binding to CI relative to proMMP-9” value ([8]; nonactivating conditions) is reported as “sevenfold less effectively” and the Off rate ([8]; without (GPO)10, MMP 100 nM, PBS, 0.05% Tween 20, 25°C, mean from at least three experiments) is reported as 0.76 s⁻¹. For the same substance, the Kd ([8]; without (GPO)10, MMP 100 nM, PBS, 0.05% Tween 20, 25°C, mean ± SD, at least three experiments) was 0.87 ± 0.39 µM.

— paper PMC3024946, “Hydroxyproline-containing collagen analogs trigger the release and activation of collagen-sequestered proMMP-2 by competition with prodomain-derived peptide P33-42” (Fibrogenesis & Tissue Repair, 2011)
